Columns and labels:
[1] = biological target: T1, HIF-2α (Homo sapiens, UniProt Q99814); experiment: Luciferase reporter gene assay (HRE-driven luciferase in stably transfected 786-O cells); type: cell-based
T1 construct: 786-O is a renal carcinoma cell line that predominantly expresses HIF-2α and lacks functional HIF-1α; endogenous in cells; host or cells: 786-O cells stably carrying an HRE-driven luciferase reporter
Description: Experimental principles: 786-O is a renal carcinoma cell line that predominantly expresses HIF-2α and lacks functional HIF-1α. This characteristic makes 786-O cells an ideal model for studying HIF-2α transcriptional activity and related signaling pathways. In the luciferase reporter gene assay, a 786-O monoclonal cell line that stably expresses hypoxia response element (HRE)-driven luciferase (Luc) activity is obtained through puromycin selection. The HIF-2α agonist promotes dimerization of HIF-2α and HIF-β, and activates an HRE promoter. By measuring fluorescence intensity, luciferase activity can be determined, thereby assessing the ability of the HIF-2α agonist to promote transcription.
Experimental method: A total of 6000 stably transfected 786-O cells stably containing HRE and Luc sequences are seeded in each well of a 96-well plate, and 100 µL of RPMI-1640 culture medium containing 10% fetal bovine serum is added to each well. After 24 hours, a compound at a corresponding concentration is added to each well. A blank group is set as a control. Only a DMSO solvent is added in the well of the blank group. For initial compound screening, both tafamidis and tafamidis meglumine are tested at two concentrations: 2 µM and 20 µM. For concentration-gradient determination, each concentration is tested in triplicate. After co-incubation for 24 hours, the culture medium is discarded, and 20 µL of firefly luciferase reporter gene cell lysis buffer (RG126M, Beyotime) is added to each well. The 96-well plate is shaken on a microplate shaker for 10 minutes. After shaking, 10 µL of lysate is transferred into a white opaque plate, and then 10 µL of Steady-Lumi™ firefly luciferase assay reagent (RG058S, Beyotime) is added to each well. Finally, luminescence is measured using a microplate reader (Agilent Synergy Neo2). E20 represents the effect of the compound at a 20 µM concentration, and is calculated as: E20 = fluorescence value of the 20 µM well ÷ fluorescence value of the blank control × 100%. E2 represents the effect of the compound at a 2 µM concentration, and is calculated as: E2 = fluorescence value of the 2 µM well ÷ fluorescence value of the blank control × 100%. EC50 is the compound concentration at which the agonistic efficacy is increased by 50% relative to the blank control. The agonistic efficacy of a compound is determined by calculating the concentration (EC50) required to achieve a 50% increase in the fluorescence activity relative to the blank control and a maximum activation percentage (Emax). The maximum activation percentage (Emax) of an agonist refers to a ratio, expressed as a percentage, of the fluorescence value corresponding to the maximal effect (observed maximal response) induced when the agonist concentration reaches receptor-binding saturation in a particular receptor system, to the fluorescence value of the receptor system in the absence of agonist. In this experiment, Vyndaqel is directly used in place of tafamidis meglumine.

[2] = tested on: vascular endothelial growth factor (VEGF) gene expression; experiment: qRT-PCR assay of VEGF gene expression in 786-O renal carcinoma cells; type: cell-based; conditions: 24 hours, relative to the vehicle, GAPDH internal control
Method: Experimental method: 786-O renal carcinoma cells are seeded into a 12-well plate. After 24 hours, tafamidis is added at different concentrations (1 µM, 10 µM, and 20 µM, separately), and the cells are co-incubated with the compound for 24 hours. No treatment is applied to the vehicle group. RNA is extracted using a TRIZOL reagent. cDNA transcription is performed using an All-in-one™ First-Strand cDNA Synthesis Kit (for specific operating procedures, see the manufacturer's instructions). A SYBR reagent is used for fluorescence signal detection, and GAPDH is used as an internal control. The qRT-PCR primers are as follows: • GAPDH_fwd, […]; • GAPDH_rev, TGGTGAAGACGCCAGTGGA; • VEGF_fwd, […]; • VEGF_rev, […]; • EPO_fwd, […]; • EPO_rev, […].

[3] = tested on: Cisplatin-induced renal injury and anemia rat model; experiment: Cisplatin-induced renal injury and anemia rat model; type: in vivo, Male Sprague-Dawley (SD) rats; conditions: 10 mg/kg daily oral for four weeks, kidney sections

T1 sequence (Q99814 whole entry): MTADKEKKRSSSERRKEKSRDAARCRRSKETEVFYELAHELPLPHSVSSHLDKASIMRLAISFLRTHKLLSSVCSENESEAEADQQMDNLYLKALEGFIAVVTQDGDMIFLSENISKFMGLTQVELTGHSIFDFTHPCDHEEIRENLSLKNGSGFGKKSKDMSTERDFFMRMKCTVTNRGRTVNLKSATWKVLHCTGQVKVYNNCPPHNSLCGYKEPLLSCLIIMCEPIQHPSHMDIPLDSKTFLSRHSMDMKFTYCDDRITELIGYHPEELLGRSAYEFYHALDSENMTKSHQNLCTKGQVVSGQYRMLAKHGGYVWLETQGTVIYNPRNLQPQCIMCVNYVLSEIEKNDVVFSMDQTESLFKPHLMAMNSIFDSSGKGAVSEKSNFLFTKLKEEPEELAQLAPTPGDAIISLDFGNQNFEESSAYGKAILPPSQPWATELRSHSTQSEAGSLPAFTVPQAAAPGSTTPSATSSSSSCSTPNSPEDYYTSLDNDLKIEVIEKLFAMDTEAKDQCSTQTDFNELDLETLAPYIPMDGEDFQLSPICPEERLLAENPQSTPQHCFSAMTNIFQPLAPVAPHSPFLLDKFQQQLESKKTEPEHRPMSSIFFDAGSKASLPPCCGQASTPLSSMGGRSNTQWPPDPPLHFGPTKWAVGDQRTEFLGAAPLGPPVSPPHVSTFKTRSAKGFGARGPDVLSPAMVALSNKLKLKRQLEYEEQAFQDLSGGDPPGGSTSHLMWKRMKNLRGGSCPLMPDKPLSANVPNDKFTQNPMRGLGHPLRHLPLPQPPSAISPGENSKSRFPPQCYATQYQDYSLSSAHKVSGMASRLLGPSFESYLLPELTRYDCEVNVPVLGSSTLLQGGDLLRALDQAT
T1 sequence (P27540 whole entry partner): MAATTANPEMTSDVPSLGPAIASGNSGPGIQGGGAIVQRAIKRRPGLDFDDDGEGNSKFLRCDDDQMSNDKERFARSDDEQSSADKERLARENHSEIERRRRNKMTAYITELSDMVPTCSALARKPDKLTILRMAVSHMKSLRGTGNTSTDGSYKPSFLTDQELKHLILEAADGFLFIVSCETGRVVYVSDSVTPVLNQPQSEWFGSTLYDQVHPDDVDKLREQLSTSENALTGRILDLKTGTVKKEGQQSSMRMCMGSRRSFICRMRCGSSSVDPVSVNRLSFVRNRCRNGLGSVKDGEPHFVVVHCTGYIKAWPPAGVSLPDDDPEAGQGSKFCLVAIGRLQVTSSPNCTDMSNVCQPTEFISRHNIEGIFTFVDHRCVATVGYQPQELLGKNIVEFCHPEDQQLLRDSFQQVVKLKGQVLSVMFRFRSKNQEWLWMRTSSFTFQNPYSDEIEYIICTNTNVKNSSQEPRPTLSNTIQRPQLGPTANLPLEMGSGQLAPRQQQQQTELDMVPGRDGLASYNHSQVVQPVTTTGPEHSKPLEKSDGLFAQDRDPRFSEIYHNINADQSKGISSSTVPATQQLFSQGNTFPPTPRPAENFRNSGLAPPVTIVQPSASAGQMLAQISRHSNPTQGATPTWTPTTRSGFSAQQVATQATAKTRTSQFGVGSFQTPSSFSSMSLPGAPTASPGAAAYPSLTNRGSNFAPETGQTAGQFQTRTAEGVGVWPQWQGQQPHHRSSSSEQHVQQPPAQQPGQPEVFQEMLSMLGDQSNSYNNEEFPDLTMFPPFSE

## O=C(O)c1ccc2nc(-c3cc(Cl)cc(Cl)c3)oc2c1 [tafamidis, 2-(3,5-dichlorophenyl)-1,3-benzoxazole-6-carboxylic acid]
[1]; 2 µM, 24 hours co-incubation, fluorescence value as % of blank control (DMSO)
  agonistic efficacy at a 2 µM concentration (E2): 142%
[1]; 20 µM, 24 hours co-incubation, fluorescence value as % of blank control (DMSO)
  agonistic efficacy at a 20 µM concentration (E20): 207%
[1]; 786-0, read-out: Emax (maximum activation percentage), maximal response as % of fluorescence without agonist
  Emax: 225%
[1]; concentration required for a 50% increase in fluorescence activity relative to the blank control, 24 hours, read-out: EC50
  EC50: 1110 nM
[2]; 10 µM
  upregulates vascular endothelial growth factor (VEGF) gene expression: 0.5 fold
[2]; 20 µM
  upregulates VEGF gene expression: 1.4 fold
[3]
  α-smooth muscle actin (α-SMA) protein levels, immunohistochemical: significantly reduces

Source: patent EP4813383A1, “USE OF TAFAMIDIS AND PHARMACEUTICALLY ACCEPTABLE SALT THEREOF IN PREVENTION, ALLEVIATION, OR TREATMENT OF DISEASES ASSOCIATED WITH HIF-2a” (Huaya Jiyuan (Shenzhen) Pharmaceutical Co., Ltd., priority 2024, dated 2025)
